Assay results taken from ChEMBL document CHEMBL3507680, “University of Dundee, Gates Library screen for HepG2 cell viability”.

Experiment: Human HepG2 cell viability assay in 384 well format
Type: toxicity, cell-based
Parameters: dose 125 nL, time 70.5 hour; concentration not given beside the values
Details: HepG2 cells, read-out: Inhibition

| SMILES | cytotoxicity at 70.5 h |
| --- | --- |
| CCC(=O)N1CCCC1c1csc(Nc2cnccn2)n1 (stereo not given) | -9.64% |
| Cc1ccc(C)c(CS(=O)(=O)Cc2ccn(C)c(=O)c2)c1 | -7.9% |
| CCCNC(=O)c1nc2c(o1)CN(c1ncccn1)C2 | -2.16% |
| COc1ccc(OCCc2cc(C3CCN(CC(C)C)C3)n[nH]2)cc1 (stereo not given) | -2.33% |
| CC(C)CN(CC(O)c1ccccc1)C(=O)Nc1nccs1 (stereo not given) | -6.61% |
| CCC(=O)N1CCC[C@]2(C(=O)N(C)C)CN(c3ccccn3)C[C@@H]2C1 | -9.46% |
| O=C(Cc1ccccc1O)NC1CCCN(c2ccccc2F)C1=O (stereo not given) | -18.3% |
| Cc1ccc(N2C[C@@H]3CN(C(=O)c4ccccc4)CCO[C@@H]3C2)nn1 | 23.3% |
| O=S(=O)(c1ccc(N2CCCCC2)c2nonc12)N1CCCCC1 | -11.2% |
| CCOc1ccc(CC(CNC(=O)c2occc2C)C(N)=O)cc1 (stereo not given) | 6.46% |
| O=C(NC[C@H]1OC[C@@H](NC2CCC(F)(F)CC2)[C@@H]1O)C1CC1 | -7.04% |
| CN(CC(=O)N1CCCC1)C(=O)c1ccccc1F | -13.9% |
| Cc1nnc(N2C[C@@H](Oc3ccccn3)[C@H]3OCCC[C@H]32)s1 | -4.15% |
| Cc1noc(C)c1CN1C[C@@H]2CN(C(=O)c3cnccn3)C[C@@H]2C1 | 0.0874% |
| COCCCN(CCOC)Cc1nc2c(cnn2C)c(=O)[nH]1 | -12.6% |
| Cc1ccc(-c2ncc(CNc3cnccc3CO)s2)o1 | -2.69% |
| Cc1cc(C)cc(N(C)S(=O)(=O)c2cc(C(=O)O)cs2)c1 | -6.25% |
| Cc1cc(NC(=O)C(C)N2CCN(c3nc(C)cs3)CC2)on1 (stereo not given) | -5.64% |
| CCCOC1CCCN(Cc2nc(-c3cccs3)oc2C)C1 (stereo not given) | -1.07% |
| Cn1ccc(NC(=O)Cc2cccc(F)c2)n1 | 14.1% |
| CC(=O)NC(Cc1c[nH]c2cc(F)ccc12)C(=O)Nc1nncs1 (stereo not given) | -2.58% |
| Nc1ccnc(N2CCC(Cc3ccccc3Cl)(C(=O)O)CC2)n1 | 1.15% |
| Cc1c(Cn2ccnc2-c2cc(CN(C)C)cs2)cnn1C | 3.72% |

| SMILES | cytotoxicity at 70.5 h |
| --- | --- |
| Cc1nsc(NC(=O)N2CCCC2C)n1 (stereo not given) | 2.78% |
| Cc1ccoc1C(=O)N1CC[C@@H]2O[C@@H](C)C[C@H]2C1 | 0.684% |
| Cc1nc2sc(C(=O)N3CCNC(=O)C3)c(C)c2c(=O)[nH]1 | -4.68% |
| Cc1cccc(OC2CCN(C(=O)NCc3cc[nH]n3)CC2)c1C | 0.923% |
| CC(C)(C)c1noc(CN2CCCc3cc(OC(F)(F)F)ccc32)n1 | -2.73% |
| CCOc1ccc(Cl)c(C(=O)N2CCN(c3ccncc3)CC2)n1 | -13.6% |
| O=C(O)c1csc(S(=O)(=O)N2CCN(Cc3ccc(Cl)cc3)CC2)c1 | -12.5% |
| Cc1nnc2n1CCN(C(=O)c1cc(Br)c(Cl)[nH]1)C2 | -1.01% |
| CC(C)c1noc(OCC(=O)N2CCCCC2C)n1 (stereo not given) | -2.39% |
| COC(=O)Cn1ccc(=O)c2ccc(OC)cc21 | 39.1% |
| CCC(O)CNc1ccc(-c2nc(CC(C)C)no2)cn1 (stereo not given) | -14.3% |
| Cc1nc(C(=O)N2CCc3c(nc(-c4ccncc4)[nH]c3=O)C2)cs1 | -8.1% |
| Cc1cnn(CC2CN(Cc3noc(C4CC4)n3)CCO2)c1 (stereo not given) | -13.6% |
| CCn1nccc1C(=O)NC(Cn1cccn1)C(C)(C)C (stereo not given) | 2.9% |
| CCCC(=O)N1CCOC2(COCCN(CC(=O)NC)C2)C1 (stereo not given) | -10.5% |
| CCS(=O)(=O)CCSc1ccc(Cl)cc1 | 27% |
| COc1ccc(C(=O)NS(=O)(=O)c2ccc(C#N)cc2C(F)(F)F)cc1 | -16.9% |
| O=S(=O)(CC1CC1)c1ncc(CN2CCOCC2)n1CC1CCCO1 (stereo not given) | -0.667% |
| CSc1nccc(N2CCCC(c3nccn3C(C)C)C2)n1 (stereo not given) | 17.1% |
| COc1ccc(OCCN(C)S(=O)(=O)c2cnn(C)c2)cc1 | -6.09% |
| CN(CCCc1cnn(C)c1)Cc1cc2n(n1)CCNC2 | -4.75% |
| CN(C)c1ncccc1NC(=O)COCC1CC1 | -9.25% |
| Cc1nc2oc(C(=O)N3CCCC3)c(N)c2c2c1CCCC2 | -16.9% |

| SMILES | cytotoxicity at 70.5 h |
| --- | --- |
| COCC1CN(S(=O)(=O)c2ccc(C)cc2)Cc2c1cnn2C (stereo not given) | 7.58% |
| CCn1nc(C)c(CNC(=O)NCC(C)(O)c2ccc(C)o2)c1C (stereo not given) | -13.6% |
| CCCn1ncc(-c2nc3c(cnn3CC)[nH]2)c1C | -7.07% |
| CC(CNCc1ccncc1)Oc1ccccn1 (stereo not given) | -12.5% |
| Cc1ccccc1CC1(C(=O)O)CCCN(c2ncnc3[nH]ccc23)C1 (stereo not given) | -5.97% |
| CCC1=N[C@@]2(CC[C@@H]3CN(Cc4ccccc4C)C[C@@H]32)C(=O)N1 | -4.43% |
| Fc1ccc(OCc2nnc([C@H]3CCN(Cc4ccncc4)C3)o2)cc1 | -6.85% |
| Cc1nc(-c2ccco2)ccc1C(=O)NCCC(=O)N1CCCCC1 | -103% |
| Cc1cc(C)n(CC2CCCN2C(=O)c2cccn3ccnc23)n1 (stereo not given) | -1.92% |
| CCOc1ccc(C(=O)N2CCCC(n3ccnc3C)C2)cc1OC (stereo not given) | -7.46% |
| O=C(NCc1ccc(-n2cncn2)nc1)c1cc(Cl)ccn1 | 12.5% |
| c1ccc(C2Cn3ccnc3CN2Cc2ncc[nH]2)cc1 (stereo not given) | -1.58% |
| Fc1ccc(Cn2ncc3c2CN(c2ncccn2)C3)cc1 | -0.987% |
| CC1c2cc(F)ccc2CCN1CCS(=O)(=O)C(C)C (stereo not given) | -3.51% |
| Cc1ccc2c(c1)CCCN2C(=O)c1cncc(Br)c1 | 20.3% |
| Cc1nc(CNC(=O)NCC(O)c2ccccc2)cs1 (stereo not given) | -2.52% |
| Cc1nn(C)c2c(N3CCN(C(=O)C4CCC4)CC3)ncnc12 | -5.94% |
| CC(CNC(=O)c1c[nH]nn1)Oc1cccc(Br)c1 (stereo not given) | -11.4% |
| Cn1cc(NC(=O)C2CC(c3ccccc3)C2)ccc1=O (stereo not given) | -15.7% |
| COCCO[C@H]1CCN(c2cc(OC)ncn2)[C@H]1Cc1cccnc1 | 7.05% |
| Cc1ccc(C(=O)N2CCC3(CCC(=O)N(C(C)C)C3)CC2)c(O)c1 | 29.9% |
| Cc1ccc(CN2CCCC3(CCN(Cc4ccc(C)o4)C3)C2)o1 (stereo not given) | -11.5% |
| C=C(C)CN1CCN(Cc2cnc(-c3ccc(OC)cc3)nc2)CC1 | 9.18% |

| SMILES | cytotoxicity at 70.5 h |
| --- | --- |
| N#CC1=C(N)Nn2c(nnc2-c2ccccc2F)S1 | -36.2% |
| CCC(Nc1nc(CCN)nc2ccccc12)c1cccs1 (stereo not given) | -3.38% |
| COc1ccc(C2CCCCCN2S(N)(=O)=O)cc1 (stereo not given) | 23.5% |
| O=C(C1CC1)N1CC[C@H]2C(=O)N(c3ccsc3)CCO[C@H]2C1 | -11.7% |
| COc1ccc(Cl)cc1NC(=O)N1CCc2nc(NC(C)=O)sc2C1 | -5.4% |
| COc1cc(N2CCC3(CC2)C(c2ccncc2)CC(=O)N3C)ncn1 (stereo not given) | -9.06% |
| CCNC(=O)[C@@H]1C[C@H](N)CN1C(=O)CCc1ccc(C)c(C)c1 | -3.41% |
| O=C(Cc1noc2ccccc12)N1CCCC1c1noc(C2CC2)n1 (stereo not given) | 32.1% |
| CCn1cc(NC(=O)NC(CO)Cc2c[nH]c3ccccc23)cn1 (stereo not given) | -4.69% |
| O=C(CN1CCCC(Cn2cncn2)C1)NCCCc1ccccc1 (stereo not given) | -2.31% |
| Cc1n[nH]c(C)c1CCC(=O)N[C@@H]1CCC[C@@H](Oc2ccccc2)[C@@H]1O | 21.6% |
| O=S1(=O)COCCN1Cc1cccc(Cl)c1 | -8.17% |
| Cc1cc(C)c(CNC(=O)NC2COc3ccccc3C2)c(=O)[nH]1 (stereo not given) | -8.39% |
| CN(Cc1ccc(N(C)C)cc1)C(=O)c1cc2c([nH]c1=O)CCCC2=O | -4.35% |
| Cn1ccnc1CN1CCCN(C(=O)COC2CCCC2)CC1 | -2.98% |
| CCN(CC1CCOC1)C(=O)CSCC(=O)Nc1ccc(C)cc1 (stereo not given) | -2.49% |
| CC1COC2(CCN(C(=O)Cc3ccncc3)CC2)C1 (stereo not given) | -0.819% |
| CC(C)NCC1(O)CCCN(CCC2CCCCC2)C1=O (stereo not given) | -7.37% |
| CS(=O)(=O)NCC1CCCN(C(=O)c2ccc(Cl)o2)C1 (stereo not given) | -8.13% |
| COc1ccccc1CN1CCN(CCN2CCOC2=O)CC1 | 8.76% |
| CC(C)n1cnnc1CN1C(=O)CCc2ccccc21 | -1.8% |
| O=c1cc(Cn2cncn2)nc2n1CCCN(Cc1ccco1)C2 | -3.55% |
| Cc1nn(CC(O)CN2CCc3ccccc3C2)c(=O)c(C#N)c1C (stereo not given) | -19.9% |

| SMILES | cytotoxicity at 70.5 h |
| --- | --- |
| N#Cc1ccnc(SCC2CN=C(N3CCOCC3)S2)c1 (stereo not given) | 2.81% |
| CC(O)c1cn(CC2CCN(C(=O)c3cccc(N(C)C)c3)CC2)nn1 (stereo not given) | -4.18% |
| NC(=O)c1csc(N2CCN(C3CCc4ccccc4C3)CC2)n1 (stereo not given) | -14.7% |
| CN(Cc1ccccc1)CC(O)Cn1cnc2ccsc2c1=O (stereo not given) | -8.61% |
| Cc1cc(C2CCCN2Cc2nc3c(cnn3C)c(=O)[nH]2)on1 (stereo not given) | -8.83% |
| CC(NC1(CNC(=O)CC(C)(C)C)CCOCC1)c1ccccc1 (stereo not given) | -7.83% |
| Cc1nc(C2CCCN(C(=O)CCCn3cccn3)C2)no1 (stereo not given) | -11.8% |
| COC(=O)NC1(C(=O)Nc2ccc(-c3cc[nH]n3)cc2)CCCC1 | -0.955% |
| CCCOC1CCCN(C(=O)c2ccnc(N3CCN(C)CC3)c2)C1 (stereo not given) | 23% |
| COc1cc(CN(C(=O)Nc2cccnc2OC)C2CC2)ccc1O | -19.7% |
| Cc1cc(CC(C)NC(=O)COc2ccc(F)cc2F)[nH]n1 (stereo not given) | -5.3% |
| CC/C=C(/C)C(=O)NCCc1csc(N2CCCC2)n1 | -0.998% |
| CCCN(CC1CC1)C(=O)Cn1ccccc1=O | -3.4% |
| CN(Cc1ccc(F)cc1)C(=O)NCC1(N2CCOCC2)CCSC1 (stereo not given) | 11.7% |
| Cc1occc(=O)c1OCc1noc(C(=O)NCC2CC2)n1 | -16.6% |
| O=C(CN1CCCC(c2ccn[nH]2)C1)Nc1nc2c(s1)CCCC2 (stereo not given) | 1.65% |
| COc1ccccc1OCCN1CCCC(c2noc(C3CC3)n2)C1 (stereo not given) | -0.413% |
| Cc1ccccc1N1CCN(C(=O)CC(C)C)CC1 | 0.0324% |
| N#Cc1ccccc1OCCN1CCCC(c2noc(C3CC3)n2)C1 (stereo not given) | 3.57% |
| CC(C(=O)N1CCN(Cc2ccc(C#N)cc2)CC1)n1ccnc1 (stereo not given) | -0.223% |
| CSCC(=O)N(C)Cc1noc(-c2ccccc2)n1 | -9.48% |
| CC(C)N(C)[C@@H]1CCN(Cc2ccco2)[C@H]1Cc1ccccc1 | 38.2% |
| CC(O)CN1CCC(CN(C)C(=O)NC2CC2)CC1 (stereo not given) | -1.96% |
